Measurements from US9951081B1, “Chlorin e6 derivative and pharmaceutically acceptable salt thereof and process for preparing and use of the same” (priority 2016, dated 2018).
Read-outs that look alike come from different tables or passages of the source.

Columns and labels:
[1] = tested on: mice melanoma cell (B16-F10); assay: In vitro darktoxicity and PDT killing effect (CCK-8), B16-F10; type: cell-based; details: for PDT anti-cancer activity (in words): light dose of 8 J/cm^2
Text: (§1) Human non-small cell lung cancer cellA549 and mice melanoma cell B16-F10 provided by Cell bank of Shanghai in Chinese Academy of Sciences were selected as cell strains.
(§2) 660 nm semiconductor laser therapeutic equipments manufactured by Baifei biomedical company of Shanghai was selected as a laser light source, with the largest output power of 2 W.
(§3) 1) Cell strains of tumors: culture of human non-small cell lung cancer cell (A549) and mice melanoma cell (B16-F10): frozen cells were taken out of liquid nitrogen, placed in a water bath at […]. […] The medium was renewed once every two days.
(§4) 2) Preparation of reagents: compounds of the present application to be tested and positive control drug Talaporfin were dissolved in a suitable amount of 0.1 M NaOH, adjusted pH to 7.4 by 0.1 M HCl. Normal saline was added to prepare drug stock solution in a suitable concentration.
(§5) 3) Detecting darktoxicity and PDT killing effects to the two tumor cells of compounds to be tested and positive control drug: 100 μL of 5×10^3/mL cell suspension was added into each well of 96-well plate, placed in a incubator at 37° C., 5% CO2 for 24 h. after removing cell medium, fresh mediums containing different concentration of samples were added, opened with three complex holes, and incubated for 24 h at 37° C. and 5% CO2 (volume concentration). After adding fresh medium, no light irradiated (darktoxicity) or 660 nm wavelength laser was used to irradiate (light dose was 8 J/cm^2) (phototoxicity). Cells were incubated for another 24 h. Cell medium containing drugs were removed and fresh medium was added. 200 μL medium containing 10% (v/v) CCK-8 (Dojindo Laboratories, Japan) was added into each well, and incubated for 1.5 h. Microplate reader (Tecan, Switzerland) was used to measure absorbance of each well at a wavelength of 450 nm.

[2] = tested on: human non-small cell lung cancer cell (A549); assay: In vitro darktoxicity and PDT killing effect (CCK-8), A549; type: cell-based; details: for PDT anti-cancer activity (in words): light dose of 8 J/cm^2
Text: as §1, §2, §3, §4, §5

[3] = 660 nm laser, light dose 8 J/cm^2, read-out: Phototoxicity (IC50)
[4] = no light irradiated, 24 h drug incubation, read-out: Darktoxicity (IC50)

SMILES	Ratio of Darktoxicity and Phototoxicity [1]	IC50 [1, 3] [µM]	IC50 [1, 4] [µM]	Ratio of Darktoxicity and Phototoxicity [2]	IC50 [2, 3] [µM]	IC50 [2, 4] [µM]	PDT anti-cancer activity (in words) [1]	PDT anti-cancer activity (in words) [2]	PDT anti-tumor activity, times that of Talaporfin ([1]; relative to Talaporfin) [times]	ratio of darktoxicity-phototoxicity, times that of Talaporfin ([1]; relative to Talaporfin) [times]	PDT anti-tumor activity, times that of Talaporfin ([2]; relative to Talaporfin) [times]	ratio of darktoxicity-phototoxicity, times that of Talaporfin ([2]; relative to Talaporfin) [times]	IC50 ([1]; Mus musculus, light or radiation study, 660 nm laser, light dose 8 J/cm^2, read-out: Phototoxicity (IC50)) [µM]	IC50 ([1]; Mus musculus, light or radiation study, no light irradiated, 24 h drug incubation, read-out: Darktoxicity (IC50)) [µM]	IC50 ([2]; Homo sapiens, light or radiation study, 660 nm laser, light dose 8 J/cm^2, read-out: Phototoxicity (IC50)) [µM]	IC50 ([2]; Homo sapiens, light or radiation study, no light irradiated, 24 h drug incubation, read-out: Darktoxicity (IC50)) [µM]
CCC1=C(C)c2cc3[nH]c(cc4nc(c(CC(=O)N[C@@H](CCCCN)C(=O)O)c5[nH]c(cc1n2)c(C)c5C(=O)O)C(CCC(=O)O)C4C)c(C)c3C(C)OCCCCOC (stereo partly drawn) [I25, N-[3-[1-(4-methoxy)butoxy]ethyl-3-devinylchlorine6-15^2-acyl]-L-lysine]	140.15	1.16	163	222.06	1.08	240										
CCCCCCOC(C)c1c(C)c2cc3nc(c(CC(=O)N[C@@H](CCC(=O)O)C(=O)O)c4[nH]c(cc5nc(cc1[nH]2)C(C)=C5CC)c(C)c4C(=O)O)C(CCC(=O)O)C3C (stereo partly drawn) [I12, N-[3-(1-n-hexyloxy)ethyl-3-devinylchlorine6-15^2-acyl]-L-glutamic acid]							best	best								
CCC1=C(C)c2cc3[nH]c(cc4nc(c(CC(=O)N[C@@H](CC(=O)O)C(=O)O)c5[nH]c(cc1n2)c(C)c5C(=O)O)[C@@H](CCC(=O)O)[C@@H]4C)c(C)c3C(C)OCCOCCOC (stereo partly drawn) [I8, N-[3-[1-(2-(2-methoxy)ethyoxyl)ethyoxyl]ethyl-3-devinylchlorine6-15^2-acyl]-L-aspartic acid]	122.07	1.43	175	283.98	1.01	287										
CCCCCCOC(C)c1c(C)c2cc3nc(c(CC(=O)N[C@@H](CC(=O)O)C(=O)O)c4[nH]c(cc5nc(cc1[nH]2)C(C)=C5CC)c(C)c4C(=O)O)[C@@H](CCC(=O)O)[C@@H]3C (stereo partly drawn) [I3, N-[3-(1-n-hexyloxy)ethyl-3-devinylchlorine6-15^2-acyl]-L-aspartic acid]	215.65	0.89	192	438.34	0.65	285	best	best	12.07	13.64	13.63	14.04				
C=Cc1c(C)c2cc3nc(c(CC(=O)N[C@@H](CC(=O)O)C(=O)O)c4[nH]c(cc5nc(cc1[nH]2)C(C)=C5CC)c(C)c4C(=O)O)[C@@H](CCC(=O)O)[C@@H]3C [Talaporfin, reference compound]	15.81			31.21									10.7	170	8.86	277
CCC1=C(C)c2cc3[nH]c(cc4nc(c(CC(=O)N[C@@H](CCC(=O)O)C(=O)O)c5[nH]c(cc1n2)c(C)c5C(=O)O)[C@@H](CCC(=O)O)[C@@H]4C)c(C)c3C(C)OCCOCCOC (stereo partly drawn) [I17, N-[3-[1-(2-(2-methoxy)ethyoxyl)ethyoxyl]ethyl-3-devinylchlorine6-15^2-acyl]-L-glutamic acid]	111.04	1.52	169	240.63	1.1	265										
CCC1=C(C)c2cc3[nH]c(cc4nc(c(CC(=O)N[C@@H](CC(=O)OC(C)(C)C)C(=O)OC(C)(C)C)c5[nH]c(cc1n2)c(C)c5C(=O)O)[C@@H](CCC(=O)O)[C@@H]4C)c(C)c3C(C)OCCOC (stereo partly drawn) [I4, N-[3-[1-(2-methoxy)ethyoxyl]ethyl-3-devinylchlorine6-15^2-acyl]-L-aspartic acid di-tert-butyl ester]	113.91	1.61	183	255.18	1.17	299										
CCCOC(C)c1c(C)c2cc3nc(c(CC(=O)N[C@@H](CCC(=O)O)C(=O)O)c4[nH]c(cc5nc(cc1[nH]2)C(C)=C5CC)c(C)c4C(=O)O)[C@@H](CCC(=O)O)[C@@H]3C (stereo partly drawn) [I11, N-[3-(1-n-propoxyl)ethyl-3-devinylchlorine6-15^2-acyl]-L-glutamic acid]			173		1.12	278										
CCCOC(C)c1c(C)c2cc3nc(c(CC(=O)N[C@@H](CCCCN)C(=O)O)c4[nH]c(cc5nc(cc1[nH]2)C(C)=C5CC)c(C)c4C(=O)O)[C@@H](CCC(=O)O)[C@@H]3C (stereo partly drawn) [I20, N-[3-(1-n-propoxyl)ethyl-3-devinylchlorine6-15^2-acyl]-L-lysine]	92.87	1.75	163	>225.56	1.33	> 300										
CCC1=C(C)c2cc3[nH]c(cc4nc(c(CC(=O)N[C@@H](CCCCN)C(=O)O)c5[nH]c(cc1n2)c(C)c5C(=O)O)[C@@H](CCC(=O)O)[C@@H]4C)c(C)c3C(C)OCCOC (stereo partly drawn) [I22, N-[3-[1-(2-methoxy)ethyoxyl]ethyl-3-devinylchlorine6-15^2-acyl]-L-lysine]	89.24	1.91	170	175.76	1.47	258										
CCC1=C(C)c2cc3[nH]c(cc4nc(c(CC(=O)N[C@@H](CCC(=O)O)C(=O)O)c5[nH]c(cc1n2)c(C)c5C(=O)O)[C@@H](CCC(=O)O)[C@@H]4C)c(C)c3C(C)OCCOC (stereo partly drawn) [I13, N-[3-[1-(2-methoxy)ethyoxyl]ethyl-3-devinylchlorine6-15^2-acyl]-L-glutamic acid]	92.93	1.72	160	213.90	1.25	267										
CCCOC(C)c1c(C)c2cc3nc(c(CC(=O)N[C@@H](CC(=O)O)C(=O)O)c4[nH]c(cc5nc(cc1[nH]2)C(C)=C5CC)c(C)c4C(=O)O)[C@@H](CCC(=O)O)[C@@H]3C (stereo partly drawn) [I2, N-[3-(1-n-propoxyl)ethyl-3-devinylchlorine6-15^2-acyl]-L-aspartic acid]	125.73	1.48	186	>288.46	1.04	> 300										
CCC1=C(C)c2cc3[nH]c(cc4nc(c(CC(=O)N[C@@H](CC(=O)O)C(=O)O)c5[nH]c(cc1n2)c(C)c5C(=O)O)C(CCC(=O)O)C4C)c(C)c3C(C)OCCCCOC (stereo partly drawn) [I7, N-[3-[1-(4-methoxy)butoxy]ethyl-3-devinylchlorine6-15^2-acyl]-L-aspartic acid]	159.38	1.04	166	317.88	0.86	273										
CCC1=C(C)c2cc3[nH]c(cc4nc(c(CC(=O)N[C@@H](CCCCN)C(=O)O)c5[nH]c(cc1n2)c(C)c5C(=O)O)C(CCC(=O)O)C4C)c(C)c3C(C)OC (stereo partly drawn) [I19, N^α-[3-(1-methoxy)ethyl-3-devinylchlorine6-15^2-acyl]-L-lysine]	84.41	2.28	192	>156.25	1.92	> 300										
CCC1=C(C)c2cc3[nH]c(cc4nc(c(CC(=O)N[C@@H](CCCCN)C(=O)O)c5[nH]c(cc1n2)c(C)c5C(=O)O)[C@@H](CCC(=O)O)[C@@H]4C)c(C)c3C(C)OCCOCCOC (stereo partly drawn) [I26, N-[3-[1-(2-(2-methoxy)ethyoxyl)ethyoxyl]ethyl-3-devinylchlorine6-15^2-acyl]-L-lysine]	105.20	1.67	176	201.61	1.23	248										
CCCCCCOC(C)c1c(C)c2cc3nc(c(CC(=O)N[C@@H](CCCCN)C(=O)O)c4[nH]c(cc5nc(cc1[nH]2)C(C)=C5CC)c(C)c4C(=O)O)C(CCC(=O)O)C3C (stereo partly drawn) [I21, N-[3-(1-n-hexyloxy)ethyl-3-devinylchlorine6-15^2-acyl]-L-lysine]	171.31	1.05	180	370.30	0.79	293	best	best								
CCC1=C(C)c2cc3[nH]c(cc4nc(c(CC(=O)N[C@@H](CC(=O)O)C(=O)O)c5[nH]c(cc1n2)c(C)c5C(=O)O)C(CCC(=O)O)C4C)c(C)c3C(C)OC (stereo partly drawn) [I1, N-[3-(1-methoxy)ethyl-3-devinylchlorine6-15^2-acyl]-L-aspartic acid]	102.34	2.06	211	>227.27	1.32	> 300										
